Assay results from patent publication US5891917A, “Certain acrylonitrile-sulfonamide derivatives” (Sugen, Inc., priority 1997, dated 1999).

Legend:
HER2 = biological target: T1, HER2 (Homo sapiens, UniProt P04626); assay: HER2-BT474 whole cell ELISA; format: cell-based; details: BT-474 cells
T1 construct: a human breast tumor cell line which expresses high levels of HER2 kinase; endogenous in cells; host or cells: BT-474 human breast tumor cells
Source text: (§1) The following examples illustrate the ability of the exemplary compounds to inhibit receptor tyrosine kinases, such as HER2 and/or EGFR. The following target cells were used for cellular kinase assays: NIH3T3 clone C7 (Honegger et al., supra) engineered to over-express human EGF receptor; NIH3T3 cells engineered to over-express a chimeric receptor containing the EGFR extracellular domain and the HER2 intracellular kinase domain; the human mammary carcinoma line BT474 (ATCC HTB2) expressing HER2; and the human glioblastoma line U1242 that expresses PDGFR-beta. Growth assays were carried out using human mammary epithelial SKBR3 (ATCC HTB30) cells (SKBR3 cells over-express HER2), SKOV3 (ATCC HTB77) human ovarian cancer cell line (SKOV3 cells also over-express HER2), A431 cells (A431 cells over-express EGFR) MCF7 human breast carcinoma cells, MCF7 cells overexpressing the HER2 kinase (MCF7-HER2), NIH3T3 cells, and NIH3T3 cells overexpressing the HER2 kinase (3T3-HER2.
HER2-BT474 assays measuring whole cell HER2 activity was carried out as described below:
1. The cell line used in this assay is BT-474 (ATCC HBT20), a human breast tumor cell line which expresses high levels of HER2 kinase.
2. BT-474 is grown in an incubator with 5% CO2 at 37° C. The growth media is RPMI+10% FBS+GMS-G (Gibco supplement)+Glutamine.
(a) Grow BT474 cells in tissue culture dishes (10 cm, Corning 25020-100) to 80-90% confluence and collect using Trypsin-EDTA (0.25%, GIBCO).
(b) Resuspend the cells in fresh medium and transfer to 96-well tissue culture plates (Corning, 25806-96) at about 25,000-50,000 cells/well (100 μl/well). Incubate the cells in 5% CO2 at 37° C. overnight.
(a) Coat the ELISA plate (Corning 25805-96) with anti HER2 antibody at 0.5 μg/well in 150 μl PBS overnight at 4° C., and seal with parafilm. The antibody coated plates can be used up to 2 weeks, when stored at 4° C.
(b) On the day of use, remove the coating solution, replace with 200 μl of Blocking Buffer, shake the plate, and then remove the blocking buffer and wash the plate just before adding lysate.
(a) […] the drugs in serum-free condition. Before adding drugs, the old media is replaced with serum-free RPMI (90 μl/well)
(b) Dilute drug stock (in 100% DMSO) 1:10 with RPMI, and transfer 10 μl/well of this solution to the cells to achieve a final drug DMSO concentration at 1%. Incubate the cells in 5% CO2 at 37° C.
(c) Prepare fresh cell lysis buffer (HNTG*)
(d) After drug preincubation for two hours remove all the solution from the plate, transfer HNTG* 100 μl/well to the cells, and shake for 10 minutes.
(e) Use a 12-channel pipette to scrape the cells from the plate, and homogenize the lysate by repeat aspiration and dispensing. Transfer all the lysate to the ELISA plate and shake for 1 hour.
(f) Remove the lysate, wash the plate, add anti-pTyr (1:3,000 with TBST) 100 μl/well, and shake for 30 minutes.
(g) Remove anti-pTyr, wash the plate, add goat anti-rabbit IgG conjugated antibody (1:5,000 with TBST) 100 μl/well, and shake for 30 minutes.
(h) Remove anti-rabbit IgG antibody, wash the plate, and add fresh ABTS/H2 O2 (1.2 μl 30% H2 O2 to 10 ml ABTS) 100 μ/well to the plate to start color development, which usually takes 20 minutes.
(I) Measure OD 410 nm, Dynatec MR5000.

[1] = test system: chimeric receptor containing the EGFR extracellular domain and the HER2 intracellular kinase domain; assay: EGFR-HER2 chimeric receptor whole cell kinase ELISA (3T3); format: cell-based; details: NIH3T3 cells with EGFR/HER2 chimera, 100 nM EGF
Source text: as §1
EGFR-HER2 Chimeric Recetor
HER2 kinase activity (EGFR-3T3) in whole cells was measured as described below:
The materials and regeants are identical to these used in example 1, the EGFR whole cell kinase assay.
A. Coat ELISA plates (Corning, 96 well, Cat. #25805-96) with 05-101 antibody at 0.5 μg per well in PBS, 100 μl final volume/well, and store overnight at 4° C. Coated plates are good for up to 10 days when stored at 4° C.
B. On day of use, remove coating buffer and replace with 100 μl blocking buffer (5% Carnation Instant Non-Fat Dry Milk in PBS). Incubate the plate, shaking, at room temperature (about 23° C. to 25° C.) for 30 minutes. Just prior to use, remove blocking buffer and wash plate 4 times with TBST buffer.
A. An NIH3T3 cell line overexpressing a chimeric receptor containing the EGFR extracellular domain and extracellular HER2 kinase domain can be used for this assay.
B. Choose dishes having 80-90% confluence for the experiment. Trypsinize cells and stop reaction by adding 10% fetal bovine serum. Suspend cells in DMEM medium (10% CS DMEM medium) and centrifuge once at 1500 rpm, at room temperature for 5 minutes.
C. Resuspend cells in seeding medium (DMEM, 0.5% bovine serum), and count the cells using trypan blue. Viability above 90% is acceptable. Seed cells in DMEM medium (0.5% bovine serum) at a density of 10,000 cells per well, 100 μl per well, in a 96 well microtiter plate. Incubate seeded cells in 5% CO2 at 37° C. for about 40 hours.
A. Check seeded cells for contamination using an inverted microscope. Dilute drug stock (10 mg/ml in DMSO) 1:10 in DMEM medium, then transfer 5 l to a […] well for a final drug dilution of 1:200 and a final DMSO concentration of 1%. Control wells receive DMSO alone. Incubate in 5% CO2 at 37° C. for two hours.
B. Prepare EGF ligand: dilute stock EGF in DMEM so that upon transfer of 10 μl dilute EGF (1:12 dilution), 100 nM final concentration is attained.
D. After 120 minutes incubation with drug, add prepared […] ligand to cells, 10 μl per well, to a final concentration of 100 nM. Control wells receive DMEM alone. Incubate, shaking, at room temperature, for 5 minutes.
E. Remove drug, EGF, and DMEM. Wash cells twice with PBS. Transfer HNTG* to cells, 100 μl per well. Place on ice for 5 minutes. Meanwhile, remove blocking buffer from other ELISA plate and wash with TBST as described above.
F. With a pipette tip securely fitted to a micropipettor, scrape cells from plate and homogenize cell material by repeatedly aspirating and dispensing the HNTG* lysis buffer. Transfer lysate to a coated, blocked, and washed ELISA plate. Incubate shaking at room temperature for one hour.
G. Remove lysate and wash 4 times with TBST. Transfer freshly diluted anti-Ptyr antibody to ELISA plate at 100 μl per well. Incubate shaking at room temperature for 30 minutes in the presence of the anti-Ptyr antiserum (1:3000 dilution in TBST).
H. Remove the anti-Ptyr antibody and wash 4 times with TBST. […]

T1 sequence (P04626 23-1255): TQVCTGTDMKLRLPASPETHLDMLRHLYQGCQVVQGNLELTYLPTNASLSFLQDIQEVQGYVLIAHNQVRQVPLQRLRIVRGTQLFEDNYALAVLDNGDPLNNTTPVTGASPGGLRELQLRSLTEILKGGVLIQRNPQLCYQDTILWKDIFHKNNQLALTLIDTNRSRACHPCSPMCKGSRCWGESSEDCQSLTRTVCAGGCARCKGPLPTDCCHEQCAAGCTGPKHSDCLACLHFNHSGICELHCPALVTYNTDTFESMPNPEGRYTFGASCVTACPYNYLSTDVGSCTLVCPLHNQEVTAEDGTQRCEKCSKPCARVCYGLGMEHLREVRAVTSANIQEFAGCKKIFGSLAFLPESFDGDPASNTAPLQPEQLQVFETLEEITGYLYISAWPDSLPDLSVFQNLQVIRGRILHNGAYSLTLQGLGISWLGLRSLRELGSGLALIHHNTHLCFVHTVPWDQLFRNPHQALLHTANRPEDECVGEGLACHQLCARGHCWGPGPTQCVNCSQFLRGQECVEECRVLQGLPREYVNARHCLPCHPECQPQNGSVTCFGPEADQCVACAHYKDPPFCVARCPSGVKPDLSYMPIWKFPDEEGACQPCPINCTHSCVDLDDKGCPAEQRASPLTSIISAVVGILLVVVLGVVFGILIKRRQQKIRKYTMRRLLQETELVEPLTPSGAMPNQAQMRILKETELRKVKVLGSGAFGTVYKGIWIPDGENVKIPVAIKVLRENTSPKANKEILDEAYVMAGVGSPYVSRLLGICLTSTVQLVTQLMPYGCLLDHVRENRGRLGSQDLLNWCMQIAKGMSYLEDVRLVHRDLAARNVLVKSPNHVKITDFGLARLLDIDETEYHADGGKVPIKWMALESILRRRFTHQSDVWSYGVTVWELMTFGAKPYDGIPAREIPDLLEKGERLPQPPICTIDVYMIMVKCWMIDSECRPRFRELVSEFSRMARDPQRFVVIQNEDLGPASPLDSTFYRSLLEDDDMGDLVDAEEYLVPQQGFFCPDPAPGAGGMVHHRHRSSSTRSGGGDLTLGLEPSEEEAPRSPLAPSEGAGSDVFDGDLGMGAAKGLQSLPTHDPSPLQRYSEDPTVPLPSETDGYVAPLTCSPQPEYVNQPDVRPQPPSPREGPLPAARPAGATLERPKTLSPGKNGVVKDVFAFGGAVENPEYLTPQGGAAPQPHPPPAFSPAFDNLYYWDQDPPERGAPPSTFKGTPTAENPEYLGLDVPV

Compound | IC50 (HER2) | IC50 [1]
N#C/C(=C\c1ccc(O)cc1Cl)S(=O)(=O)NCCCc1ccccc1 [Compound 734] | 1.8 µM | 21.7 µM
CC(C)c1cc(/C=C(\C#N)S(=O)(=O)NCc2ccccc2)cc(C(C)C)c1O [Compound 732] | 1.9 µM | 20.9 µM
CC(C)c1cc(/C=C(\C#N)S(=O)(=O)c2ccsc2)cc(C(C)C)c1O [Compound 738] | 1.3 µM | 36.4 µM
CC(C)(C)c1cc(/C=C(\C#N)S(=O)(=O)Cc2cccc(C(F)(F)F)c2)cc(C(C)(C)C)c1O [Compound 735] | 0.3 µM | 57.4 µM
N#C/C(=C\c1ccc(O)cc1Cl)S(=O)(=O)NCc1ccccc1 [Compound 733] | 5.8 µM | 83.5 µM
Cc1cc(/C=C(\C#N)S(=O)(=O)Cc2cccc(C(F)(F)F)c2)cc(C)c1O [Compound 739] | 4.1 µM | > 100 µM
CC(C)c1cc(/C=C(\C#N)S(=O)(=O)c2ccccc2)cc(C(C)C)c1O [Compound 731] | 0.3 µM | 17.2 µM
CC(C)c1cc(/C=C(\C#N)S(=O)(=O)c2cccs2)cc(C(C)C)c1O [Compound 737] | 1 µM | 32 µM
CC(C)c1cc(/C=C(\C#N)S(=O)(=O)Cc2cccc(C(F)(F)F)c2)cc(C(C)C)c1O [Compound 736] | 0.8 µM | 22.7 µM
CC(C)(C)c1cc(/C=C(\C#N)S(=O)(=O)c2ccc(F)cc2)cc(C(C)(C)C)c1O [Compound 740] | 0.4 µM | > 100 µM

Further lines, results first:

IC50 (HER2) | IC50 [1] | Compound
> 50 µM | – | CC(C)c1cc(/C=C(\C#N)S(=O)(=O)/C(C#N)=C/c2cc(C(C)C)c(O)c(C(C)C)c2)cc(C(C)C)c1O [Compound 745]
0.2 µM | 27.8 µM | CC(C)(C)c1cc(/C=C(\C#N)S(=O)(=O)c2cccs2)cc(C(C)(C)C)c1O [Compound 742]
4.5 µM | – | Cc1cc(/C=C(\C#N)S(=O)(=O)c2ccc(F)cc2)cc(C)c1O [Compound 744]
– | 13.9 µM | CC(C)c1cc(/C=C(\C#N)S(=O)(=O)c2ccc(F)cc2)cc(C(C)C)c1O [Compound 741, (E)-3-(3,5-Diisopropyl-4-hydroxyphenyl)-2-(4-fluorophenylsulfonyl)acrylonitrile]
0.3 µM | 8.1 µM | CC(C)(C)c1cc(/C=C(\C#N)S(=O)(=O)c2ccsc2)cc(C(C)(C)C)c1O [Compound 746]
12.6 µM | – | N#C/C(=C\c1ccc(O)c(O)c1)S(=O)(=O)c1cccs1 [Compound 743, (E)-3-(3,4-Dihydroxyphenyl)-2-[(thien-2-yl)sulfonyl]acrylonitrile]
